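Method: 48-hour compound exposure of cells in 96-well plates, five concentrations, linear interpolation of endpoints. GI50: concentration for 50% inhibition of growth.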 Active and inactive are the calls of the source. No stated cut-off is given here; in the data, active = GI50 up to about 1.1 µM and inactive = higher.
Assays:
Experiment in all cases: NCI anticancer screen, dose series, 48 h
UO-31 = test system: UO-31
OVCAR-3 = test system: OVCAR-3
HL-60 = test system: HL-60
IGROV-1 = test system: IGROV-1
SK-MEL-5 = test system: SK-MEL-5
MDA-MB-435 = test system: MDA-MB-435
KM12 = test system: KM12
MOLT-4 = test system: MOLT-4
PC-3 = test system: PC-3
HCC 2998 = test system: HCC 2998
SR = test system: SR
SW-620 = test system: SW-620
OVCAR-8 = test system: OVCAR-8
RPMI-8226 = test system: RPMI-8226
NCI-H23 = test system: NCI-H23
HCT-116 = test system: HCT-116
HOP-62 = test system: HOP-62
RXF 393 = test system: RXF 393
U-251 = test system: U-251
A498 = test system: A498

Measured: GI50

COc1ccc2c(c1)C(=O)CC(N)C2 (configuration not stated)
inactive: UO-31 40.6 µM | OVCAR-3 88.5 µM | HL-60 62.7 µM | IGROV-1 > 100 µM | SK-MEL-5 > 100 µM | MDA-MB-435 > 100 µM | KM12 > 100 µM | MOLT-4 19.5 µM | PC-3 42 µM | HCC 2998 47.6 µM | SR 55.7 µM | SW-620 > 100 µM | OVCAR-8 > 100 µM | RPMI-8226 > 100 µM | NCI-H23 > 100 µM | HCT-116 > 100 µM | HOP-62 > 100 µM | RXF 393 > 100 µM | U-251 > 100 µM

O=C(c1ccco1)N1CCN(C(=O)c2ccco2)C1=S
inactive: UO-31 3.68 µM | OVCAR-3 3.44 µM | HL-60 3.42 µM | IGROV-1 9.64 µM | SK-MEL-5 10.1 µM | MDA-MB-435 3.59 µM | KM12 3.93 µM | MOLT-4 1.42 µM | PC-3 4.78 µM | HCC 2998 12.4 µM | SR 1.79 µM | SW-620 5.66 µM | OVCAR-8 11 µM | RPMI-8226 2.02 µM | NCI-H23 18.4 µM | HCT-116 9.86 µM | HOP-62 10.6 µM | RXF 393 2.88 µM | U-251 10 µM

CC(C)(C)OC(=O)N1C(OP(=O)(Oc2ccccc2)Oc2ccccc2)=CSc2ccccc21
inactive: UO-31 27.4 µM | OVCAR-3 31.3 µM | HL-60 20.1 µM | IGROV-1 38.1 µM | SK-MEL-5 28.2 µM | MDA-MB-435 31.3 µM | KM12 32.8 µM | MOLT-4 20.1 µM | PC-3 47.8 µM | HCC 2998 39.4 µM | SR 31.8 µM | SW-620 41.2 µM | OVCAR-8 59 µM | RPMI-8226 17.8 µM | NCI-H23 37.4 µM | HCT-116 30.2 µM | HOP-62 47.6 µM | RXF 393 41.8 µM | U-251 32.9 µM

O=C(c1cc(Br)ccc1O)c1cc(Br)ccc1O
inactive: UO-31 14.3 µM | OVCAR-3 15.7 µM | HL-60 22.4 µM | IGROV-1 14.3 µM | SK-MEL-5 12.6 µM | MDA-MB-435 15.8 µM | KM12 17.1 µM | MOLT-4 18.4 µM | PC-3 17.1 µM | HCC 2998 19.1 µM | SW-620 16.4 µM | A498 17.6 µM | OVCAR-8 16.9 µM | RPMI-8226 11.3 µM | NCI-H23 17.1 µM | HCT-116 15.9 µM | HOP-62 18.7 µM | RXF 393 14.7 µM | U-251 15.5 µM

COc1ccc(-c2c(C#N)c(O)n(NS(=O)(=O)c3ccc(C)cc3)c(=O)c2C#N)cc1
inactive: HL-60 37.1 µM | IGROV-1 35.8 µM | SK-MEL-5 42.1 µM | MDA-MB-435 75 µM | KM12 > 100 µM | MOLT-4 20.5 µM | PC-3 71.4 µM | HCC 2998 45.9 µM | SW-620 57.4 µM | A498 57.1 µM | OVCAR-8 70 µM | RPMI-8226 19.5 µM | HCT-116 56 µM | HOP-62 99.3 µM | RXF 393 66.5 µM | U-251 67.8 µM

Cc1cc2oc(=O)c(Cl)c(Cl)c2c(C)c1Cl
inactive: UO-31 12.7 µM | OVCAR-3 2.58 µM | HL-60 1.91 µM | IGROV-1 4.3 µM | SK-MEL-5 6.93 µM | MDA-MB-435 4.25 µM | KM12 15.1 µM | MOLT-4 2.1 µM | PC-3 11.4 µM | HCC 2998 5.51 µM | SW-620 1.37 µM | A498 19.9 µM | OVCAR-8 3.28 µM | RPMI-8226 2.35 µM | NCI-H23 6.28 µM | HCT-116 3.78 µM | HOP-62 24.6 µM | RXF 393 2.84 µM | U-251 3.19 µM

O=C1CCC2c3ccccc3NCN12 (configuration not stated)
inactive: UO-31 > 100 µM | OVCAR-3 > 100 µM | HL-60 > 100 µM | IGROV-1 > 100 µM | SK-MEL-5 > 100 µM | MDA-MB-435 > 100 µM | KM12 > 100 µM | MOLT-4 > 100 µM | PC-3 > 100 µM | HCC 2998 > 100 µM | SW-620 > 100 µM | A498 > 100 µM | OVCAR-8 > 100 µM | RPMI-8226 > 100 µM | NCI-H23 > 100 µM | HCT-116 > 100 µM | HOP-62 > 100 µM | RXF 393 > 100 µM | U-251 > 100 µM

C/C=C/C(C#N)(/C=C/c1ccccc1)OP1(=O)OC(c2ccccc2)C(C)N1C (configuration not stated)
inactive: UO-31 17.8 µM | OVCAR-3 19.5 µM | HL-60 12.6 µM | IGROV-1 16.4 µM | SK-MEL-5 16.9 µM | MDA-MB-435 18.2 µM | KM12 19 µM | MOLT-4 10.9 µM | PC-3 17 µM | HCC 2998 14 µM | SW-620 16.1 µM | A498 20.1 µM | OVCAR-8 17.9 µM | RPMI-8226 15.2 µM | HCT-116 16.6 µM | HOP-62 19.4 µM | RXF 393 20.7 µM | U-251 17.2 µM

O=C(N/N=C/c1ccc(Br)cc1)N/N=C/c1ccc(Br)cc1
inactive: UO-31 10.9 µM | OVCAR-3 3.81 µM | HL-60 13.2 µM | IGROV-1 4.72 µM | SK-MEL-5 14.1 µM | MDA-MB-435 12.3 µM | KM12 17.1 µM | MOLT-4 4.42 µM | PC-3 17.3 µM | HCC 2998 17.3 µM | SR 4.33 µM | SW-620 7.13 µM | OVCAR-8 5.08 µM | RPMI-8226 10.6 µM | NCI-H23 22.9 µM | HCT-116 3.53 µM | HOP-62 5.56 µM | RXF 393 13.3 µM | U-251 6.24 µM

CN(C)c1ccc(/C=C(\NC(=O)c2ccccc2)C(=O)Nc2cccc(C(=O)NCCCO)c2)cc1
inactive: UO-31 > 100 µM | OVCAR-3 > 100 µM | HL-60 > 100 µM | IGROV-1 > 100 µM | SK-MEL-5 > 100 µM | MDA-MB-435 > 100 µM | KM12 > 100 µM | MOLT-4 > 100 µM | PC-3 > 100 µM | HCC 2998 > 100 µM | SW-620 > 100 µM | A498 > 100 µM | OVCAR-8 > 100 µM | RPMI-8226 > 100 µM | NCI-H23 > 100 µM | HCT-116 > 100 µM | HOP-62 > 100 µM | RXF 393 > 100 µM | U-251 > 100 µM

O=C(CSCC(=O)N/N=C\c1cc(Br)cc(Br)c1O)N/N=C\c1cc(Br)cc(Br)c1O
inactive: UO-31 15.7 µM | OVCAR-3 17.6 µM | IGROV-1 16.6 µM | SK-MEL-5 25 µM | MDA-MB-435 40.9 µM | KM12 25.4 µM | MOLT-4 13 µM | PC-3 23.7 µM | SR 15 µM | SW-620 37 µM | OVCAR-8 18.9 µM | NCI-H23 48.4 µM | HCT-116 19.6 µM | HOP-62 29.9 µM | RXF 393 83.9 µM | U-251 4.28 µM
